Reference: ChEMBL document CHEMBL5356981, “Discovery of potential scaffolds for glutaminyl cyclase inhibitors: Virtual screening, synthesis, and evaluation” (Bioorg Med Chem, 2024)

Biological target: Glutaminyl-peptide cyclotransferase (Homo sapiens, UniProt Q16769)
Test: Inhibition of N-terminal his6-tagged human recombinant glutaminyl cyclase expressed in Escherichia coli using H-Gln-AMC as substrate incubated for 60 mins in presence of pyroglutamyl peptidase

Chain of Glutaminyl-peptide cyclotransferase (Q16769 whole entry): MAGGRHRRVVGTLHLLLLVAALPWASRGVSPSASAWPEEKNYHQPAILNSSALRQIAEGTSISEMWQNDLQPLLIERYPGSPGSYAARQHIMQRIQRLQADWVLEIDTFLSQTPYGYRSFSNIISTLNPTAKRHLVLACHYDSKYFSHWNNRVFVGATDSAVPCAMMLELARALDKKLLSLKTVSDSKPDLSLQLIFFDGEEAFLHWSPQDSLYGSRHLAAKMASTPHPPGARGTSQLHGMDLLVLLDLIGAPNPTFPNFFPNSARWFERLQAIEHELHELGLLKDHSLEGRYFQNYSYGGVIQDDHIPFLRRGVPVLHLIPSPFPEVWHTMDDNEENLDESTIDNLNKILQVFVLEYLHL

COc1ccc(S(=O)(=O)Nc2ccc(-c3cn[nH]c3)cc2)cc1
IC50: > 30 µM
